This test has as its system P. falciparum 3D7 growth, pLDH absorbance. The test is described as follows: P. falciparum 3D7 growth inhibition, dose response, strain 3D7 (AID 2305).

Structures are written as SMILES. Values joined by “and” are separate entries in the source; they are usually repeats but may differ in a detail not shown here. Equal entries are not always repeated.

In turn, `O=C(CCn1cncn1)N1CCCC(c2[nH]c3ccccc3c2-c2ccncc2)C1` (centres undefined) gave an IC50 of 800 nM.
The result for `COc1ccc(Cn2c(=O)[nH]c3cc(C(=O)NC4CCN(Cc5ccccc5)CC4)ccc3c2=O)cc1` reads 750 nM; that for `N#Cc1nc2ccc(OCCN(Cc3ccccc3C(F)(F)F)c3ccc(C#N)c(C(F)(F)F)c3)cc2s1`, 860 nM.
`O=C(Nc1ccc(-c2nc3ccc(NC(=O)c4ccc(Br)cc4)cc3[nH]2)cc1)c1ccc(Br)cc1` displayed an IC50 of 790 nM.
For `O=C(/C=C/c1ccc(Cl)c(Cl)c1)NCCCCCN1CCCN(C(=S)Nc2ccc(Cl)cc2)CC1`, the IC50 worked out at 1130 nM.
`CC(C)(C)c1ccc(C(=O)Nc2cccc(Nc3c(C(=O)NCc4cccc(C(F)(F)F)c4)cnc4c(O)cccc34)c2)cc1`: the IC50 is 1090 nM.
As for `CON=C1CCC(Cn2ccnc2)(c2ccc(Cl)cc2Cl)CC1` (centres undefined), the IC50 was 880 nM.
`COc1ccc(S(=O)(=O)NCC2CCCN(CCCCCNC(=O)/C=C/c3ccc(Cl)c(Cl)c3)C2)cc1` (centres undefined) registered an IC50 of 1060 nM.
The result for `CN1CCc2ccc(NC(=O)Nc3ccc(-c4ccccc4)cc3)cc2C1` reads 510 nM; that for `Cc1cc(-c2ccc(CNC3CCN(C)CC3)cc2)ccc1S(=O)(=O)NCc1ccccc1`, 850 nM.
`COc1ccc(C(=O)Cn2nc(-c3ccc(Cl)cc3)ccc2=O)c(OC)c1`: the IC50 was 500 nM.
The result for `CN(C)CCCNCc1cn(S(=O)(=O)c2ccccc2Cl)c2ccccc12` reads 1070 nM; that for `COc1ccc2nccc([C@@H](O)CN3CCC(NCc4nc5c([N+](=O)[O-])cccc5[nH]4)CC3)c2c1`, 710 nM.
Then `COc1cc(NC(=O)/C=C/c2ccccc2Cl)cc(OCCN2CCC(O)(c3ccccc3)CC2)c1`, with 170 nM; and `CN1CCCC(CN2CCN(Cc3ccc(-c4ccc(-c5nc6ccc(F)cc6[nH]5)cc4)cc3)CC2)C1` (centres undefined), with 120 nM.
`c1ccc2c3c(ccc2c1)Sc1c(ccc2ccccc12)N3`: the IC50 was 1070 nM.
The result for `NCCNc1ccnc2cc(Cl)ccc12` reads 130 nM; that for `O=C(Nc1ccccc1)c1cnc[nH]1`, 990 nM.
In turn, `Cc1cc(C(=O)Nc2ccc3c(c2)CCN3C2CCN(Cc3ccc(F)cc3Cl)C2)no1` (centres undefined) gave a 50% inhibitory concentration (IC50) of 190 nM.
Consider `COc1ccc(C2C(C(=O)Nc3cc(Cl)c(OC)cc3OC)c3ccccc3C(=O)N2C)cc1` (centres undefined), for which the half-maximal inhibitory concentration (IC50) came to 820 nM.
The result for `CC(C)c1ccc(NC(=O)c2ccc(NCCCN(C)Cc3ccccc3)c([N+](=O)[O-])c2)cc1` reads 680 nM.
The result for `COc1ccc(Nc2nc(N3CCCC3)c3ccccc3n2)cc1` reads 750 nM; that for `CCOC(=O)c1c(C)n(-c2ccccc2)c2ccc(OC(=O)COc3ccc(Cl)cc3Cl)cc12`, 430 nM.
Compound `O=C(NCC1CC1)C1CCN(C(c2ccccc2)c2cc(F)cc(F)c2)CC1` (centres undefined) registered a half-inhibitory concentration (IC50) of 380 nM.
`Cn1cncc1C(=O)Nc1ccc(-c2ccc(-c3nc4ccc(C(F)(F)F)cc4[nH]3)cc2)cc1` showed an IC50 of 560 nM.
The compound `O=C(c1cccc(-c2ccc(-c3nc4ccc(C(F)(F)F)cc4[nH]3)cc2)c1)N1CCCCC1CN1CCC(O)C1` (centres undefined) yielded a half-inhibitory concentration (IC50) of 470 nM.
The result for `COc1ccc(-c2cccc(NC(=O)c3ccc(Cl)cc3)c2)cc1CNC(C)C` reads 690 nM; that for `N#CN1CC[C@H](CS(=O)(=O)c2cccc(Br)c2)C1`, 870 nM.
Then `Cn1cccc1C(=O)Nc1cccc(-c2nn3ccccc3c2-c2ccnc(Nc3ccc4c(c3)OCCO4)n2)c1`, with 1350 nM; and `Cc1ccc(-c2noc(=O)n2CC(=O)Nc2ccccc2-c2ccccc2)cc1`, with 810 nM.
For the compound `NC(=O)c1sc(-n2cnc3ccc(OCC4CCNCC4)cc32)cc1OCc1ccccc1C(F)(F)F`, the IC50 was determined as 750 nM.
`COc1ccc(C(=O)Nc2cc(Br)c3c(c2)CNCC3)cc1Br` yielded an IC50 of 910 nM.
The result for `COc1cc2nc(N3CCC(CNC(=O)c4ccc(-c5ccc(C(=O)N(C)C)cc5OCCN(C)C)cc4)CC3)nc(N)c2cc1OC` reads 840 nM; that for `CCCCNC(=O)c1cc(CNC2CCCCC2)ccc1-c1cccc(CNCc2ccc(-c3ccccc3)cc2)c1`, 530 nM.
The result for `COc1ccc(-c2cccc(CNC3CCN(C)CC3)c2)cc1S(=O)(=O)NCc1ccccc1` reads 870 nM; that for `FC(F)(F)c1ccc2nccc(NCc3ccccc3)c2c1`, 1150 nM; that for `O=C(CCCCCCc1ccccc1)Nc1ccc2nc3c(c(NCc4ccccc4)c2c1)CCCC3`, 360 nM.
Then `CCN(CC)c1ccc(C(c2ccc(N(CC)CC)cc2)c2ccc([N+](=O)[O-])cc2)cc1`, with 950 nM.
As to `O=C1OC2(CCN(C(=O)c3ccc(-n4cnnn4)cc3)CC2)CN1Cc1ccc(Cl)c(Cl)c1`, the IC50 came to 720 nM.
`COc1ccc(CN2CCCN(Cc3cccc(NC(=O)c4ccc(-c5ccccc5)cc4)c3)CC2)cc1` displayed an IC50 of 940 nM.
Consider `COc1ccc(CC2(c3ccc(F)cc3)N=C(N)N(CCCc3ccc(F)c(F)c3)C2=O)cc1` (centres undefined), for which the IC50 was 780 nM.
Regarding `CC(C)OCCCNC(=O)c1nc(-c2cccc(C(F)(F)F)c2)sc1C(C)C`, the 50% inhibitory concentration (IC50) is 1160 nM.
Compound `COc1ccc(NC(=O)c2ccc3[nH]c(-c4ccc(Cl)cc4)cc3c2)cc1OCCN(C)C` registered a 50% inhibitory concentration (IC50) of 810 nM.
The result for `CCCCCCCN1[C@@H]2CC[C@H]1CC(CCOc1ccnc3ccc(OC)cc13)C2` (some centres undefined) reads 390 nM; that for `O=C(NCCCCN1CCC(c2ccc3ccccc3c2O)CC1)c1ccc(NC(=O)c2ccc(Cl)cc2)cc1`, 1010 nM.
The result for `NC(=O)C1CCN(Cc2ccc(-c3ccc(-c4nc5ccc(F)cc5[nH]4)cc3)cc2)CC1` reads 810 nM; that for `COc1c(C2CCN(CCCCNC(=O)c3ccc(-c4ccc(Cl)cc4)cn3)CC2)ccc2c1CCCC2`, 910 nM; that for `COc1ccc(/C=C/C(=O)N2CCc3cc4nccc(N5CCN6CCC[C@H]6C5)c4cc32)cc1`, 640 nM.
The compound `N#Cc1ccc(C=CC(=O)NC2CCC(CCN3CCc4ccc(-c5cnccn5)cc4CC3)CC2)cc1` (centres undefined) came in with an IC50 of 610 nM.
With `COc1ccc2nccc([C@@H](O)CN3CCC(NCc4nc5c(F)cccc5[nH]4)CC3)c2c1`, the concentration for half-maximal inhibition (IC50) worked out at 470 nM.
The result for `CCCOc1ccc(CCNCCCCNCCc2ccc(OCCC)c3ccccc23)c2ccccc12` reads 920 nM.
As for `COCCNCc1cccc(C#Cc2cc3ncnc(Nc4ccc(OCc5cccc(F)c5)c(Cl)c4)c3s2)n1`, the IC50 was found to be 740 nM.
Then `COC(=O)c1cccc(CNCc2ccc(-c3cccc(-c4nc5c(C)cccc5[nH]4)c3)cc2)c1`, with 310 nM.
For the compound `Cc1cc(Cl)c(S(=O)(=O)N2CCc3ccccc32)cc1OCC(=O)NC1CCCCC1`, the IC50 worked out at 300 nM.
`CCCC(CNCc1cccc(OC(F)(F)C(F)F)c1)CNc1cc(=O)c2ccccc2[nH]1` (centres undefined) returned a concentration for half-maximal inhibition (IC50) of 590 nM.
Take `CN(C)CCN(C)Cc1ccc(-c2cccc(NC(=O)c3cccc(C#N)c3)c2)cc1`: the half-inhibitory concentration (IC50) amounted to 1180 nM.
Then `COc1ccc(CNCc2ccccc2)cc1-c1ccc(S(=O)(=O)NCCN2CCCC2)c(F)c1`, with 1140 nM.
Then `COc1ccc(CN(C)CCCc2ccc(NC(=O)c3cccc4c(=O)c5cccc(F)c5[nH]c34)cc2)cc1OC`, with 940 nM; and `COc1ccc(NC(=O)c2ccc(C=Cc3ccc(C(F)(F)F)cc3)cc2)cc1N1CCN(C)CC1`, with 420 nM; and `Cc1ccc2nc(NC#N)[nH]c2c1`, with 1150 nM.
The result for `COc1cc(-c2nc(-c3ccccc3)c(-c3ccccc3)[nH]2)cc(OC)c1O` reads 770 nM.
In turn, `O=C(/C=C/c1ccc(Cl)c(Cl)c1)NCC1CCC(N2CCC(c3c[nH]c4ccccc34)CC2)CC1` (centres undefined) returned a half-inhibitory concentration (IC50) of 170 nM.
Consider `NC(N)=Nc1nc(-c2ccc(NCc3ccc(CNc4cccc(-c5csc(N=C(N)N)n5)c4)cc3)cc2)cs1`, for which the concentration for half-maximal inhibition (IC50) amounted to 310 nM.
The result for `COc1cc(C(=O)N2CCOC(CCN3CCc4c(c5ccccc5n4C)C3)(c3ccc(Cl)c(Cl)c3)C2)cc(OC)c1OC` (centres undefined) reads 360 nM; that for `Cn1cc(C2CCN(CCCCNC(=O)c3ccc(C(=O)Nc4ccc(C#N)cc4)cc3)CC2)c2ccccc21`, 720 nM.
Turning to `C=CCO[C@@H]1O[C@H](COC(c2ccccc2)(c2ccccc2)c2ccccc2)[C@@H](OC(C)=O)[C@H](OC(C)=O)[C@H]1NC(C)=O`, the IC50 was 660 nM.
Then `Oc1ccc(CN2CCC(NCc3cccc4ccccc34)CC2)cc1`, with 1200 nM; and `Cc1ccc(Nc2ccnc3cc(-c4nccs4)ccc23)cc1C(O)c1ccccc1` (centres undefined), with 740 nM; and `CC(C)(C)c1ccc(CN2CCC(NC(=O)c3ccc(-c4cccc(F)c4)s3)CC2)cc1`, with 1090 nM.
For the compound `O=C(NCc1cccc(F)c1)Nc1cccc(-c2cccc(-c3nc4ccc(C(F)(F)F)cc4[nH]3)c2)c1`, the half-maximal inhibitory concentration (IC50) stood at 330 nM.
The compound `Cc1ccccc1C1CCN(C2CCC(NC(=O)c3cncc(-c4ccccc4)c3)CC2)CC1` (centres undefined) displayed an IC50 of 930 nM.
The result for `O=C(NCCCN1CCCC1=O)NCc1ccccc1` reads 820 nM; that for `CC(C)(C)c1ccc(S(=O)(=O)Nc2ccccc2N2CCOCC2)cc1`, 680 nM; that for `CN1CCN(CCCN(Cc2csc(-c3ccc(CNCc4ccccc4)cc3)n2)C(=O)c2cc(F)cc(F)c2)CC1`, 710 nM.
As to `CCCNC(=O)Nc1cc2cc(-c3ccc(CN4CCCC4)cc3)ccc2n2c(C)nnc12`, the IC50 worked out at 1500 nM.
The compound `CCc1cc2c(cc1OCCN(C)C)N(C(=O)Nc1ccc(-c3ccncc3)c(Cl)c1)CC2` came in with an IC50 of 840 nM.
For the compound `CCCc1cc(C(=O)N[C@@H](Cc2ccccc2)[C@H](O)CNC(C)C)c(F)c(N2CCCC2=O)c1`, the IC50 was determined as 940 nM.
As for `CC[C@H]1CN2CC[C@@H]1C[C@H]2[C@H](O)c1cc(-c2c(C)noc2C)nc2ccc(OC)cc12`, the half-inhibitory concentration (IC50) is 30 nM.
Then `COc1cc(NC(=O)/C=C/c2ccccc2OC(F)(F)F)cc(OCCN2CCC(O)(c3ccccc3)CC2)c1`, with 290 nM; and `CCCN(CCCN(CCCN(CCC)C(C)C)c1cc(C)nc(Nc2ccc(Cl)cc2)n1)C(C)C`, with 110 nM.
The result for `COc1ccc2ncc(Cl)c(NCC3(O)CCC(NCc4ccc5c(n4)NC(=O)CS5)CC3)c2n1` (centres undefined) reads 600 nM; that for `O=S(=O)(c1cccc(Cl)c1F)N(CCC(O)(C(F)(F)F)C(F)(F)F)Cc1cccc(O)c1`, 920 nM; that for `O=C(/C=C/c1ccc(Cl)cc1)NC1CCC(CN2CCC(c3c[nH]c4ccccc34)CC2)CC1` (centres undefined), 800 nM and 730 nM.
Turning to `O=C(Nc1cccc(CN2CCCN(Cc3ccc4c(c3)OCO4)CC2)c1)c1cc2ccccc2s1`, the half-inhibitory concentration (IC50) worked out at 990 nM.

A word on the IC50: it is the point on the concentration scale where inhibition reaches its midpoint. High values mean weaker potency, low ones greater potency.

The values are drawn from PubChem BioAssay AID2305 (GlaxoSmithKline (GSK), 2010).
